These results are taken from US12577213B2 (NINGBO COMBIREG PHARMACEUTICAL TECHNOLOGY CO., LTD., priority 2020, dated 2026).

One test concerns PC-3 (prostate cancer). Kind of test: NCI method SRB growth inhibition, PC-3. It counts as cell-based. Particulars: Homo sapiens; PC-3, treated 48 hours, SRB stain. The essentials: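 In vitro growth inhibition over 48 h, quantified by SRB protein staining (515 nm) against time-zero and vehicle controls; GI50 reported.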
For test [1], the system named is breast cancer cell line SUM159 sphere. Kind of test: Breast cancer stem cell sphere formation. As to conditions: 50 nM; for formation of the sphere after cell passage: 5 days of drug treatment, then passage. It counts as cell-based, human. Here is the method: The inhibitory effects of embodiment compounds 5, 7, 11, 13, 14, 20 and 21 on the formation of breast cancer cell line SUM159 sphere are described as follows.
The breast cancer cell line SUM159 sphere was cultured with serum-free medium in an ultra-low adsorption plate, the basal medium was DMEM/F12 (without phenol red), and B27 (without vitamin A) (1×), EGF (20 ng/ml), bFGF (20 ng/ml) and insulin (insulin, 5 ug/ml) were added.
An equal number (4000) of SUM159 cells per well were inoculated into an ultra-low adsorption 24 plate, and the sphere was photographed after 5 days of culture, replaced with fresh medium, and treated with drugs at certain concentrations, respectively. Compounds 5, 7, 11, 13, 14, 20 and 21 were evaluated in this experiment at 50 nM, respectively. The effect of the drug on the sphere phenotype could be observed after about 3 days of drug treatment. The sphere was photographed again after 5 days of drug treatment, and then the sphere was passaged. The sphere was photographed again after 7 days of passage.
The differences of the photographs taken in three different stages were counted and compared, and the killing effect of the tested compounds on SUM159 sphere was evaluated through the differences of sphere formation after passage, thus reflecting the inhibitory effects of different compounds on breast cancer stem cells.

For test [2], the system named is xenograft of human lung cancer NCI-H522 in nude mice. Kind of test: Xenograft tumor growth inhibition, NCI-H522. It counts as in vivo, BALB/c nude mice. As to conditions: iv., q4d × 6. Here is the method:
(§1) The embodiment compound was prepared as a 40× stock solution of DMSO and diluted to the administered concentration with saline containing 2.5% Tween 80 (Tween 80) used before;
(§2) Male BALB/c nude mice, 4-5 weeks old, were purchased from Beijing Vital River Laboratory Animal Technology Co., Ltd, with a license No. SCXK(Beijing)2012-0001, and the mice were bred in the SPF-class laboratory animal center of Tsinghua University. The tumor lines used in the experiment were: xenograft of human lung cancer NCI-H522 in nude mice, xenograft of human colon cancer HCT-116 in nude mice.
(§3) Tumor-bearing animals with good tumor growth and overall condition were selected and sacrificed by cervical dislocation. The tumors were removed under aseptic condition, cut into tumors with 2-3 mm diameter by a scalpel, and inoculated subcutaneously behind the armpit of nude mice by trocar. The tumors grew naturally and were randomly grouped after the tumor volume grew to 105 mm^3, and the administration date of grouping was set as D0 (Day 0).
(§4) Grouping experiment, with 7-9 animals in each group, starting from now on, administration was started according to the weight of the animals. During the administration process, the long, short diameter of the tumors and weight of animals were measured every 2-3 days, and the tumor size was calculated by the formula: (½)×long diameter×(short diameter)^2, and the experiment was ended on the 27th day (D27) after grouping. At the end of the experiment, the animals were sacrificed by cervical dislocation, the tumors were peeled off and weighed, and the inhibitory rates of the drugs on tumor growth were calculated. Tumor volume (TV) and relative tumor volume (RTV) were calculated. T test was used to compare the statistical significance of the differences in tumor weight, tumor volume and RTV of the animals in each group.
(§5) Calculation formulas are as follows: average tumor weight in the vehicle control group−average tumor weight in the treatment group Tumor inhibition rate (%)=(average tumor weight in the vehicle control group−average tumor weight in the treatment group)[…](average tumor weight in the vehicle control)×100. Tumor volume (TV)=(length×width^2)/2. Relative tumor volume (RTV)=Vt/Vo (wherein, Vo is the TV measured at the time of grouping and administration, and Vt is the TV at each subsequent measurement).
(§6) [formula] • Efficacy evaluation criteria: T/C (%)>40 is invalid; • T/C (%)≤40, and P<0.05 is effective after statistical processing. 4.

Test [3] relates to xenograft of human colon cancer HCT-116 in nude mice. Kind of test: Xenograft tumor growth inhibition, HCT-116. It counts as in vivo, BALB/c nude mice. Particulars: for Relative tumor proliferation rate (%) / Tumor weight inhibition rate (%): HCT116 xenograft; for efficacy evaluation on growth of HCT-116 xenograft (in words): criteria: T/C (%)≤40 and P<0.05 is effective. Here is the method: as §1, §2, §3, §4, §5, §6

The mark [4] stands for this setting: 20 mg/kg, intravenous injection every other day × 3.
Setting [5] is: 20 mg/kg, intravenous injection every other day × 9.
[6] abbreviates: 16 mg/kg, intravenous injection every other day × 9.

The term GI50 denotes the concentration at which growth is held to half of that of the control. Higher therefore signals less potent growth inhibition. On to `[2H]C([2H])([2H])Oc1cc(C(=O)Nc2cc3c(cc2Oc2cc(C)cc(C)c2)C(=O)N[C@@H](CC(=O)N(C([2H])([2H])C([2H])([2H])[2H])C([2H])([2H])C([2H])([2H])[2H])C(=O)N3)c(Br)c(OC([2H])([2H])[2H])c1OC([2H])([2H])[2H]` [Compound 5, (S)-2-bromo-N-[3-[2-[bis(pentadeuteroethyl)amino]-2-oxoethyl]-7-(3,5-dimethylphenoxy)-2,5-dioxo-2,3,4,5-tetrahydro-1H-benzo[e][1,4]diazepin-8-yl]-3,4,5-tris(trideuteromethoxy)benzamide], for which, in the test with PC-3 (prostate cancer), the 50% growth inhibitory concentration (GI50) is under 5 nM. In test [1], the “killing effect on SUM159 sphere” value was “strong killing effect” and the “formation of the sphere after cell passage” value is “significantly reduced”. Further, in test [2] (12.5 mg/kg), the “T/C (%)” value was determined as 31.7% and the “Tumor weight inhibition (%)” value came out at 72.03%. Moreover, in test [2] (25 mg/kg), the “T/C (%)” value was determined as 21.2% and the “Tumor weight inhibition (%)” value is 84.20%. In test [2] (50 mg/kg), the “T/C (%)” value turned out to be 14.2% and the “Tumor weight inhibition (%)” value is recorded as 90.02%. For the same compound, in test [3] (setting [4]), the “Relative tumor proliferation rate (%)” value is on record as 34% and the “Tumor weight inhibition rate (%)” value is 69.6%. Also, the “efficacy evaluation on growth of HCT-116 xenograft (in words)” value (“efficacy evaluation on growth” for short) in test [3] is “inhibit the growth”.
`[2H]C([2H])([2H])Oc1cc(C(=O)Nc2cc3c(cc2Oc2cc(C)cc(C)c2)C(=O)N[C@@H](CC(=O)N(C)C)C(=O)N3)c(Br)c(OC([2H])([2H])[2H])c1OC([2H])([2H])[2H]` [Compound 20, (S)-2-bromo-N-[3-[2-(dimethylamino)-2-oxoethyl]-7-(3,5-dimethylphenoxy)-2,5-dioxo-2,3,4,5-tetrahydro-1H-benzo[e][1,4]diazepin-8-yl]-3,4,5-tris(trideuteromethoxy)benzamide] returned a concentration for 50% growth inhibition (GI50) in the test with PC-3 (prostate cancer) of under 5 nM. Besides, in test [1], the “killing effect on SUM159 sphere” value is given as “strong killing effect” and the “formation of the sphere after cell passage” value is listed as “significantly reduced”. Also, in test [3] (setting [5]), the “Relative tumor proliferation rate (%)” value was found to be 30% and the “Tumor weight inhibition rate (%)” value worked out at 75.4%. The “efficacy evaluation on growth” value in test [3] is “inhibit the growth”.
For `[2H]C([2H])([2H])Oc1cc(C(=O)Nc2cc3c(cc2Oc2cc(C)cc(C)c2)C(=O)N(C)[C@@H](CC(=O)N(C)C)C(=O)N3)c(Br)c(OC([2H])([2H])[2H])c1OC([2H])([2H])[2H]` [Compound 16, (S)-2-bromo-N-[3-[2-(dimethylamino)-2-oxoethyl]-7-(3,5-dimethylphenoxy)-4-methyl-2,5-dioxo-2,3,4,5-tetrahydro-1H-benzo[e][1,4]diazepin-8-yl]-3,4,5-tris(trideuteromethoxy)benzamide], the concentration for 50% growth inhibition (GI50) in the test with PC-3 (prostate cancer) is under 5 nM. In addition, in test [3] (setting [6]), the “Relative tumor proliferation rate (%)” value worked out at 38% and the “Tumor weight inhibition rate (%)” value is recorded as 63.4%. Further, in test [3], the “efficacy evaluation on growth” value was “inhibit the growth”.
